Data published in publication PMC7274539, “The selective glucocorticoid receptor antagonist CORT125281 has tissue-specific activity” (The Journal of Endocrinology, 2020).

How the values were obtained:
GR = system: GR; set-up: method as in Lahteenmaki et al. 1987, Kroon et al. 2018; conditions: half maximal inhibitory concentration of the GR antagonist; ref Lahteenmaki et al. 1987, Kroon et al. 2018; cited from earlier work
male C57Bl/6J mice [1] = experiment: Body weight, food intake and immune cell counts under CORT125281 via the diet; format: in vivo; conditions: for body weight / food intake: 6 days
Protocol: (§1) All studies involving animals were approved by the institutional ethics committee on animal care and experimentation at the Leiden University Medical Center. The 8-week old male C57Bl/6J mice (Charles River) were housed in ventilated cages with a 12 h light:12 h darkness regime and ad libitum access to food and water. In the acute corticosterone exposure experiments, mice received a synthetic chow diet (Research Diets, New Brunswick, NJ, USA) containing vehicle or CORT125281 (6, 20 or 60 mg/kg/day, Corcept Therapeutics, Menlo Park, CA, USA) for 6 days. […] Mice were treated daily with vehicle, 60 mg/kg mifepristone (Corcept Therapeutics) or 60 mg/kg CORT125281 (dissolved in PBS with 0.1% Tween 80 and 0.5% hydroxypropylmethylcellullose, Corcept Therapeutics) via oral gavage for 5 days, after which mice were killed by CO2 inhalation. Throughout the experiment, body weight was monitored and body composition was determined with EchoMRI™ (Frankfurt, Germany). After 5 days, blood was collected from the lateral tail vain in paraoxon-coated capillaries after a 6-h fast. Plasma triglyceride, total cholesterol, free fatty acid, glucose and insulin levels were determined using commercially available kits (Roche; Instruchemie, Delfzijl, Netherlands and Crystal Chem, Zaandam, Netherlands). Blood concentrations of the major leukocyte classes, that is, lymphocytes, monocytes and eosinophils, were determined in whole blood using an automatic veterinary hematology analysis (Sysmex XT-2000iV; Goffin Meyvis, Etten-Leur, the Netherlands).

male C57Bl/6J mice [2] = experiment: Subchronic corticosterone exposure (pellet): body composition, organ weights, leukocytes, plasma insulin, glucose, lipids; format: in vivo; conditions: corticosterone pellet 5 days, 60 mg/kg/day oral gavage
Protocol: as §1
(§2) In both acute and subchronic corticosterone experiments, relevant tissues (including quadriceps muscle, interscapular BAT, gonadal white adipose tissue (WAT), adrenals, spleen, thymus, pituitary and hippocampus) were collected to determine tissue weight and/or for further molecular analysis.

[3] = system: hypothalamus-pituitary-adrenal (HPA)-axis activity; experiment: Basal and novelty stress-induced HPA-axis activity (ACTH, corticosterone, pituitary Pomc, adrenal weight); format: in vivo, C57Bl/6J mice
Protocol: as §1, §2
Novelty stress tests were performed in the morning (between 08:00–12:00 h) after 2 days of exposure to CORT125281. At t = 0, a blood sample was collected, after which mice were placed in a novel cage without bedding. After 10 min, a second blood sample was collected and mice were placed back in their original home cage.
For dual label in situ hybridization, frozen unfixed pituitaries were embedded in tissue-tek OCT (Sakura Finetek, Alphen aan den Rijn, Netherlands), sliced (12 µm) and collected on glass slides (Superfrost Plus, Thermo Fisher Scientific). Dual label in situ hybridization was performed using the QuantiGene ViewRNA ISH Tissue 2-Plex Assay (Thermo Fisher Scientific) and pictures were captured with a wide-field microscope (DM6B, Leica Microsystems). For 4-plex in situ hybridization, frozen, unfixed brain slices (12 µm) were collected on glass slides at bregma −0.772 mm (PVN) and −1.532 mm (hippocampus). 4-plex in situ hybridization was performed using the RNAScope fluorescent multiplex assay and RNAscope 4-plex ancillary kit (Advanced Cell Diagnostics, Newark, CA, USA) and Opal fluorophores 520, 570, 620 and 690 (PerkinElmer). Pictures were captured with a confocal microscope (SP8 WLL, Leica Microsystems). All pictures were analysed with ImageJ Software (NIH).

other nuclear receptors = system: other nuclear receptors; set-up: method as in Kroon et al. 2018; conditions: ref Kroon et al. 2018; cited from earlier work
[4] = system: GR transcriptional activity; experiment: Acute corticosterone exposure or basal conditions: RT-qPCR of GR target genes in tissues; format: in vivo, C57Bl/6J mice
Protocol: as §1, §2
Total RNA was isolated from snap-frozen tissues using TriPure isolation reagent (Roche). After reverse transcription to cDNA (Promega), RT-qPCR was performed using IQ SYBR-Green supermix and MyIQ thermal cycler (Bio-RAD CFX96). Primers were tested for high efficiency (90–110%) and for amplification of a single PCR product. All primer sequences are listed in Supplementary Table 1 (see section on supplementary materials given at the end of this article), with the exception of Ncor1 and Ncor2 which were purchased from Qiagen. Fold change expression was calculated using the 2^−ΔΔ^CT method.

[5] = 60 mg/kg/day, corticosterone 1.5 mg/kg, liver
[6] = 60 mg/kg/day, without corticosterone exposure

## Cn1ncc(S(=O)(=O)N2CC[C@H]3Cc4c(cnn4-c4ccc(F)cc4)C[C@]3(C(=O)c3cc(C(F)(F)F)ccn3)C2)n1 [CORT125281]
GR
  IC50: 427 nM
Male C57Bl/6J mice [1]; 60 mg/kg/day via diet 6 days, without excess corticosterone exposure
  immune counts (WBC, lymphocytes, monocytes, eosinophils): did not alter
Male C57Bl/6J mice [1]; 60 mg/kg/day via food
  body weight: did not alter
  food intake: did not alter
Male C57Bl/6J mice [1]; 6 and 20 mg/kg/day via food
  body weight: did not alter
  food intake: did not alter
Male C57Bl/6J mice [2]
  HOMA-IR: improved
  corticosterone-induced alteration in body weight (BW) gain: did not prevent
  corticosterone-induced hyperlipidaemia (plasma triglycerides, total cholesterol): seemed to modestly reduce
  free fatty acid levels: did not affect
  glucose levels: improved
  lean mass (reduced by corticosterone): not altered
  thymus weight: did not prevent
Male C57Bl/6J mice [2]; 6-h fast
  corticosterone-induced hyperinsulinemia: partially prevented
[3]; 60 mg/kg/day
  adrenal weights: did not alter
  peak and trough corticosterone levels: did not alter
  peak novelty stress-induced corticosterone levels: slightly attenuated
[3]; 60 mg/kg/day, novelty stress
  slope of corticosterone during the recovery phase (t = 30 to 120 min): unaltered
[3]; 6-20 mg/kg/day
  GR (Nr3c1) mRNA expression in the anterior pituitary: increased
  expression of pro-opiomelanocortin (Pomc) in the anterior pituitary: unaltered
  weight of adrenals: unaltered
[3]; 6-20 mg/kg/day, 08:00 h and 18:00 h
  basal peak or trough corticosterone levels: did not alter
[3]; 6 and 20 mg/kg/day vs vehicle, all measured time points, day 2
  corticosterone levels after novelty stress: similar
[3]; 6 and 20 mg/kg/day, 18:00 on day 4
  circulating levels of ACTH: unchanged
Other nuclear receptors
  cross-reactivity with other nuclear receptors: lacks cross-reactivity
[4]; 60 mg/kg/day via food 6 days, corticosterone 1.5 mg/kg s.c. 1 h before killing, liver
  corticosterone-induced mRNA of GR target genes in liver: complete blockade
[4]; 60 mg/kg/day via food 6 days, corticosterone 1.5 mg/kg, BAT
  corticosterone-induced GR target genes in BAT: inhibition of only a subset of corticosterone-induced genes
[4]; 60 mg/kg/day via food 6 days, corticosterone 1.5 mg/kg, WAT
  corticosterone-induced GR target genes in WAT: no effects
[4]; 60 mg/kg/day via food 6 days, corticosterone 1.5 mg/kg, hippocampus
  corticosterone-induced GR target genes in hippocampus: no effects
[4]; 60 mg/kg/day via food 6 days, corticosterone 1.5 mg/kg, quadriceps muscle
  corticosterone-induced GR target genes in muscle: inhibition of only a subset of corticosterone-induced genes
[4]; [5]
  corticosterone induction of G6pc in liver: a similar pattern was observed
  corticosterone induction of Pepck in liver: blocked the induction
[4]; 60 mg/kg/day, corticosterone 1.5 mg/kg, muscle
  corticosterone induction of Murf1 in muscle: completely blocked
[4]; 60 mg/kg/day, intact animals without prior corticosterone exposure
  mRNA levels of Gilz and G6p in liver: inhibited mRNA levels
[4]; [6]
  Cd36 expression in BAT: upregulated
  GR target gene expression in WAT: did not affect
  GR target gene expression in muscle: did not affect
[4]; 60 mg/kg/day, without corticosterone exposure, to a very modest extent
  expression of Sgk1 and Mt2a in hippocampus: downregulated
[4]; 6-20 mg/kg/day doses, BAT
  antagonistic actions on corticosterone-induced genes in BAT: completely lost
[4]; 6 and 20 mg/kg/day, solvent injection
  Mt2a expression in liver of solvent-injected mice: inhibited
[4]; lower doses 6 and 20 mg/kg/day, 6 days, corticosterone 1 h before tissue collection
  corticosterone-induced GR transcriptional activity of Fkbp5, Gilz, Sgk1 and Mt2a in liver: partially inhibited
[4]; lower doses 6 and 20 mg/kg/day, WAT
  GR transcriptional activity in WAT: did not inhibit
[4]; via food 6 days, liver
  dose required to attenuate corticosterone-induced expression of Fkbp5 and Gilz in liver: 20 mg/kg/day
  dose sufficient to attenuate corticosterone-induced expression of Sgk1 and Mt2a in liver: 6 mg/kg/day
